How the values were obtained:
[1] = system: TGF-β-stimulated SMAD3 phosphorylation in BEAS-2B cells; test: Cellular ALK5 potency assay, inhibition of TGF-β stimulated pSMAD3 formation in BEAS-2B cells; type: cell-based; details: Homo sapiens; inhibition of TGF-β stimulated pSMAD3 formation, BEAS-2B cells; read-out: BEAS2B pIC50 (converted)
In short: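 AlphaLISA pSMAD3 read-out, beads incubated overnight. Human BEAS-2B cells: 1 h compound preincubation (37 °C, 5% CO2), then 30 min TGF-β at 10 ng/mL final, immediate lysis. Values are pIC50 relative to stimulated, compound-free baseline.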

[2] = molecular target: T1, recombinant human ALK5 (TGF-βR1) protein (Homo sapiens, UniProt P36897); test: Biochemical ALK5 (TGF-βR1) assay to measure pKi (LANCE Ultra ULight kinase assay); details: apparent pKi from pIC50 by Cheng-Prusoff, read-out: ALK5 pKi (converted)
T1 construct: purchased Life Technologies PR9075A
T1 sequence (P36897 34-503): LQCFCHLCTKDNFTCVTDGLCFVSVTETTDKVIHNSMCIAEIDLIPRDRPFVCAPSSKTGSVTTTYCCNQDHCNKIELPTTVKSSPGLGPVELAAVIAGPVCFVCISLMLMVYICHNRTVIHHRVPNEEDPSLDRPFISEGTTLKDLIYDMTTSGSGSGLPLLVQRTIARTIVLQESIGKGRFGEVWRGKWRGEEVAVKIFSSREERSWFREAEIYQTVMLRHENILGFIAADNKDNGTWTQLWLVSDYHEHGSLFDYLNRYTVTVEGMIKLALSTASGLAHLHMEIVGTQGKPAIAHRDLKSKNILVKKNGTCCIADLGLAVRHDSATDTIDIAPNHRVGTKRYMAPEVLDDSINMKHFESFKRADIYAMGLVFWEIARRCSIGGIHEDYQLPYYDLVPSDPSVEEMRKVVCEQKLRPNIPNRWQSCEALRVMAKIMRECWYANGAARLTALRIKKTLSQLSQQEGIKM
In short: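 Dose range 10 μM–25 pM; enzyme + compound 60 min RT; ATP added (5× stock 125 μM, 2 mM DTT); 60 min 37 °C; stop with EDTA + Eu anti-phospho-Topo IIα Thr1342 Ab; TR-FRET ex 320/340, em 665 nm. 4-param pIC50 → pKi (Cheng-Prusoff).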

SMILES | Ki [2] [nM] | IC50 [1] [nM]
Cc1cccc(-c2n[nH]cc2-c2ccc3nccc(NCC(=O)N4CCOCC4)c3n2)n1 [Compound 825, 2-[[6-[3-(6-methyl-2-pyridyl)-1H-pyrazol-4-yl]-1,5-naphthyridin-4-yl]amino]-1-morpholino-ethanone] | 0.398 to 3.16 | 25.1 to 158
Cc1cccc(-c2[nH]cnc2-c2ccc3ncc(-c4cccc(C(=O)OC5CNC5)c4)cc3c2)n1 [Compound 197, azetidin-3-yl 3-[6-[5-(6-methyl-2-pyridyl)-1H-imidazol-4-yl]-3-quinolyl]benzoate] | 0.0398 to 0.316 | 25.1 to 158
Cc1cccc(-c2nnn(Cc3ccccc3)c2-c2ccc3ncc(N4CCC(N5CCN(C)CC5)CC4)cc3c2)n1 [Compound 533, 6-[3-benzyl-5-(6-methyl-2-pyridyl)triazol-4-yl]-3-[4-(4-methylpiperazin-1-yl)-1-piperidyl]quinoline] | 0.0398 to 0.316 | 200 to 1260
Cc1cccc(-c2[nH]cnc2-c2ccc3ncc(-c4ccnc(C(=O)O)c4)cc3c2)n1 [Compound 1092, 4-[6-[5-(6-methyl-2-pyridyl)-1H-imidazol-4-yl]-3-quinolyl]pyridine-2-carboxylic acid] | < 0.0316 | 1580 to 10000
Cc1cccc(-c2n[nH]cc2-c2ccc3ncc(N4CCC[C@@H]4CO)cc3n2)n1 [Compound 270, [(2R)-1-[6-[3-(6-methyl-2-pyridyl)-1H-pyrazol-4-yl]-1,5-naphthyridin-3-yl]pyrrolidin-2-yl]methanol] | 0.0398 to 0.316 | 25.1 to 158
CNC1CN(c2cnc3ccc(-c4c[nH]nc4-c4cccc(C)n4)nc3c2)C1 [Compound 94, N-methyl-1-[6-[3-(6-methyl-2-pyridyl)-1H-pyrazol-4-yl]-1,5-naphthyridin-3-yl]azetidin-3-amine] | 0.0398 to 0.316 | 25.1 to 158
CCOC(=O)CCc1ccnc2ccc(-c3c[nH]nc3-c3cccc(C)n3)nc12 [Compound 814, ethyl 3-[6-[3-(6-methyl-2-pyridyl)-1H-pyrazol-4-yl]-1,5-naphthyridin-4-yl]propanoate] | 0.0398 to 0.316 | 25.1 to 158
Cc1cccc(-c2[nH]cnc2-c2ccc3ncc(C(=O)OCCCN4CCCC4)cc3c2)n1 [Compound 738, 3-pyrrolidin-1-ylpropyl 6-[5-(6-methyl-2-pyridyl)-1H-imidazol-4-yl]quinoline-3-carboxylate] | 0.0398 to 0.316 | 25.1 to 158
Cc1cccc(-c2[nH]ncc2-c2ccc3ncc(C(=O)OC[C@H]4CCCNC4)cc3c2)n1 [Compound 1230, [(3S)-3-piperidyl]methyl 6-[5-(6-methyl-2-pyridyl)-1H-pyrazol-4-yl]quinoline-3-carboxylate] | 0.0398 to 0.316 | 25.1 to 158
Cc1cccc(-c2n[nH]cc2-c2ccc3ncc(N4CCN5CCCC5C4)cc3n2)n1 (stereo not shown) [Compound 74, 7-(3,4,6,7,8,8a-hexahydro-1H-pyrrolo[1,2-a]pyrazin-2-yl)-2-[3-(6-methyl-2-pyridyl)-1H-pyrazol-4-yl]-1,5-naphthyridine] | < 0.0316 | 25.1 to 158
Cc1cccc(-c2n[nH]cc2-c2ccc3ncc(-c4[nH]nc5c4CCN5)cc3n2)n1 [Compound 393, 2-[3-(6-methyl-2-pyridyl)-1H-pyrazol-4-yl]-7-(2,4,5,6-tetrahydropyrrolo[2,3-c]pyrazol-3-yl)-1,5-naphthyridine] | < 0.0316 | 25.1 to 158
Cc1cccc(-c2[nH]ncc2-c2ccc3ncc(C(=O)OC[C@H]4CCCCN4)cc3c2)n1 (racemic) [Compound 1194, [rac-(2R)-2-piperidyl]methyl 6-[5-(6-methyl-2-pyridyl)-1H-pyrazol-4-yl]quinoline-3-carboxylate] | 0.0398 to 0.316 | < 20
Cc1cccc(-c2n[nH]cc2-c2ccc3ncc(N(C)CCCN4CCOCC4)cc3n2)n1 [Compound 506, N-methyl-6-[3-(6-methyl-2-pyridyl)-1H-pyrazol-4-yl]-N-(3-morpholinopropyl)-1,5-naphthyridin-3-amine] | 0.0398 to 0.316 | 25.1 to 158

More lines, main results first:

Ki [2] [nM] | SMILES | IC50 [1] [nM]
0.0398 to 0.316 | Cc1cccc(-c2[nH]cnc2-c2ccc3ncc(C4=CCN(C(C)C)C4)cc3n2)n1 [Compound 253, 7-(1-isopropyl-2,5-dihydropyrrol-3-yl)-2-[5-(6-methyl-2-pyridyl)-1H-imidazol-4-yl]-1,5-naphthyridine] | 25.1 to 158
0.0398 to 0.316 | Cc1cccc(-c2n[nH]cc2-c2ccc3ncc(N4CCN(CCNC(C)C)CC4)cc3n2)n1 [Compound 637, N-[2-[4-[6-[3-(6-methyl-2-pyridyl)-1H-pyrazol-4-yl]-1,5-naphthyridin-3-yl]piperazin-1-yl]ethyl]propan-2-amine] | 25.1 to 158
< 0.0316 | Cc1cccc(-c2n[nH]cc2-c2ccc3ncc(NCCN4CCNCC4)cc3n2)n1 [Compound 668, 6-[3-(6-methyl-2-pyridyl)-1H-pyrazol-4-yl]-N-(2-piperazin-1-ylethyl)-1,5-naphthyridin-3-amine] | 200 to 1260
0.0398 to 0.316 | Cc1cccc(-c2[nH]cnc2-c2ccc3ncc(NC[C@@H]4CCCN4)cc3c2)n1 [Compound 679, 6-[5-(6-methyl-2-pyridyl)-1H-imidazol-4-yl]-N-[[(2S)-pyrrolidin-2-yl]methyl]quinolin-3-amine] | 200 to 1260
0.0398 to 0.316 | Cc1cccc(-c2n[nH]cc2-c2ccc3ncc(N4CCCN(Cc5ccccc5)CC4)cc3n2)n1 [Compound 65, 7-(4-benzyl-1,4-diazepan-1-yl)-2-[3-(6-methyl-2-pyridyl)-1H-pyrazol-4-yl]-1,5-naphthyridine] | 200 to 1260
0.0398 to 0.316 | Cc1nc(-c2nc3ccccn3c2-c2ccc3ncc(NCCN4CCN(C(C)C)CC4)cc3c2)ccc1F [Compound 620, 6-[2-(5-fluoro-6-methyl-2-pyridyl)imidazo[1,2-a]pyridin-3-yl]-N-[2-(4-isopropylpiperazin-1-yl)ethyl]quinolin-3-amine] | 25.1 to 158
0.0398 to 0.316 | Cc1cccc(-c2n[nH]cc2-c2ccc3nccc(-c4cnn(CCN5CCOCC5)c4)c3n2)n1 [Compound 833, 4-[2-[4-[6-[3-(6-methyl-2-pyridyl)-1H-pyrazol-4-yl]-1,5-naphthyridin-4-yl]pyrazol-1-yl]ethyl]morpholine] | 25.1 to 158
0.398 to 3.16 | Cc1cccc(-c2[nH]ncc2-c2ccc3nccc(C(=O)OCCC4CNC4)c3c2)n1 [Compound 1136, 2-(azetidin-3-yl)ethyl 6-[5-(6-methyl-2-pyridyl)-1H-pyrazol-4-yl]quinoline-4-carboxylate] | 200 to 1260
< 0.0316 | Cc1cccc(-c2[nH]cnc2-c2ccc3ncc(C4=CCC(N)CC4)cc3n2)n1 (stereo not shown) [Compound 149, 4-[6-[5-(6-methyl-2-pyridyl)-1H-imidazol-4-yl]-1,5-naphthyridin-3-yl]cyclohex-3-en-1-amine] | 25.1 to 158
3.98 to 31.6 | CCOC(=O)c1ccnc2ccc(-c3c(-c4cccc(C)n4)n[nH]c3-c3cccc(F)c3)nc12 [Compound 858, ethyl 6-[5-(3-fluorophenyl)-3-(6-methyl-2-pyridyl)-1H-pyrazol-4-yl]-1,5-naphthyridine-4-carboxylate] | 200 to 1260
0.398 to 3.16 | Cc1cccc(-c2[nH]nnc2-c2ccc3ncc(N4CCNCC4)cc3n2)n1 [Compound 479, 2-[5-(6-methyl-2-pyridyl)-1H-triazol-4-yl]-7-piperazin-1-yl-1,5-naphthyridine] | 200 to 1260
0.0398 to 0.316 | Cc1cccc(-c2n[nH]cc2-c2ccc3ncc(OCCN4CCN(C(C)C)CC4)cc3n2)n1 [Compound 241, 7-[2-(4-isopropylpiperazin-1-yl)ethoxy]-2-[3-(6-methyl-2-pyridyl)-1H-pyrazol-4-yl]-1,5-naphthyridine] | 200 to 1260
0.0398 to 0.316 | Cc1cccc(-c2n[nH]cc2-c2ccc3nccc(CNCCCN4CCN(C(C)C)CC4)c3n2)n1 [Compound 819, 3-(4-isopropylpiperazin-1-yl)-N-[[6-[3-(6-methyl-2-pyridyl)-1H-pyrazol-4-yl]-1,5-naphthyridin-4-yl]methyl]propan-1-amine] | 25.1 to 158
3.98 to 31.6 | Cc1cccc(-c2[nH]ncc2-c2ccc3nccc(C(=O)OC[C@H]4CCCN4)c3c2)n1 [Compound 1223, [(2R)-pyrrolidin-2-yl]methyl 6-[5-(6-methyl-2-pyridyl)-1H-pyrazol-4-yl]quinoline-4-carboxylate] | 25.1 to 158
0.0398 to 0.316 | Cc1cccc(-c2n[nH]cc2-c2ccc3nccc(Cl)c3n2)n1 [Compound 851, 8-chloro-2-[3-(6-methyl-2-pyridyl)-1H-pyrazol-4-yl]-1,5-naphthyridine] | < 20
< 0.0316 | Cc1cccc(-c2[nH]cnc2-c2ccc3ncc(-c4ccc(C(=O)OCC5CNC5)cn4)cc3c2)n1 [Compound 1103, azetidin-3-ylmethyl 6-[6-[5-(6-methyl-2-pyridyl)-1H-imidazol-4-yl]-3-quinolyl]pyridine-3-carboxylate] | 25.1 to 158

— US11590116B2 (THERAVANCE BIOPHARMA R&D IP, LLC, priority 2019, dated 2023)
